In patent US12084411B2, “Hinokitiol analogues, methods of preparing and pharmaceutical compositions thereof” (The Board of Trustees of the University of Illinois, priority 2018, dated 2024):

Legend:
[1] = tested on: fet3Δftr1Δ yeast; assay: Sustainability assay; type: cell-based, Saccharomyces cerevisiae; settings: 10 μM hinokitiol, 10 μM FeCl3
Protocol: Sustainable hinokitiol-promoted growth restoration of fet3Δftr1Δ yeast was performed similar to previously reported (20) by inoculation of hinokitiol-rescued yeast from low iron SD-agar plates containing 10 μM hinokitiol and 10 μM FeCl3 into low iron SD liquid media containing 10 μM hinokitiol and 10 μM FeCl3, then streaking of the yeast suspension (diluted to OD600 of 0.1) onto agar plates. This process was repeated for >100 days. Continued reliance of fet3Δftr1Δ yeast growth on hinokitiol was observed, as removal of hinokitiol from the SD-agar plates led to no fet3Δftr1Δ yeast cell growth.

[2] = Determination of the pKa of hinokitiol; type: physicochemical; settings: 0.1 M KCl solution in water, spectrophotometric titration
Protocol: The pKa of hinokitiol was determined by spectrophotometric titration with varying pH. Hinokitiol (100 μM) was dissolved in a 0.1 M KCl solution in H2O and acidified to pH=3.0 (using 0.1 M HCl). The UV-Vis spectrum was repeatedly obtained upon sequential titration of 0.1 M KOH to obtain a range of pHs (3.0, 3.4, 3.9, 4.2, 4.6, 4.9, 6.0, 6.4, 7.0, 7.2, 7.6, 8.4, 9.3, 9.7, 10.4, 10.9, 11.7, 12.0).

[3] = biological target: T1, ferritin (Homo sapiens, UniProt P02792+P02794); assay: Removal of 55Fe from ferritin; type: biochemical; settings: buffered solution, 2.5 ng ferritin/mL
T1 construct: endogenous in cells; host or cells: wild type Caco-2 monolayers (human, ATCC HTB-37); immunoprecipitated with anti-FTL1 on Protein G PLUS-Agarose beads
T1 sequence (P02792 2-175 limits assumed): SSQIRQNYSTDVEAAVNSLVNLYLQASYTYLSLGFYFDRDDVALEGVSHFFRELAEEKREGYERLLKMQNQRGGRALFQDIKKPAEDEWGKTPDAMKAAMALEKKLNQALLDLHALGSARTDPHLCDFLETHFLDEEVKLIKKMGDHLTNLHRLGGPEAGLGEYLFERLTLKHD
T1 sequence (P02794 whole entry): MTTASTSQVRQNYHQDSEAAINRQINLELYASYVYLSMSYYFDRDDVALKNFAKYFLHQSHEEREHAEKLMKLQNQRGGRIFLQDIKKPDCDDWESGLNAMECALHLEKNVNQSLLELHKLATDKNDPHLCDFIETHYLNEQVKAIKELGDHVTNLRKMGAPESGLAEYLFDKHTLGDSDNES
Protocol: The immunoprecipitated ferritin was diluted to 2.5 ng ferritin/mL (determined by ELISA as described below) in 50 mM MES/Tris buffer at pH=7.0, and increasing concentrations of hinokitiol were added (from 1000X stock in DMSO) to give the final indicated concentrations. The suspension was mixed at room temperature for 2 hours.

[4] = Exchangeability of ferric iron bound to hinokitiol; type: physicochemical
Protocol: The reversible exchange of ferric iron bound to hinokitiol was determined similar to previously described (69). […] The solution was equilibrated for 1 hour at 37° C., and then an equal amount of ^55FeCl3 (100 nM) was added. The solution was incubated at 37° C., and at the indicated time points an aliquot was taken and added to water. The iron-hinokitiol complex was immediately separated from unbound iron through extraction with ethyl acetate and the radioactive counts were determined by scintillation counting.

[5] = tested on: TMEM14CΔ MEL cells; assay: Hemoglobinization of TMEM14C-deficient MEL cells; type: cell-based, mouse; settings: 1 μM
Protocol: Cells were then incubated at 37° C. for 72 hours unless otherwise noted. […] Hemoglobinized MEL cells were quantified three days after DMSO induction through o-dianisidine staining similar to previously reported (74). Cells were centrifuged three days after induction and rinsed with PBS. […] Cells were then imaged on an AXIO Zoom […] microscope to obtain color images. The number of stained cells were then quantified via ImageJ analysis and compared to the number of total cells in each image. To determine that hinokitiol requires DMSO induction for hemoglobinization, 2% DMSO was not added at the beginning of the experiment before a 72-hour incubation and o-dianisidine staining.

[6] = tested on: FPN1-deficient J774 macrophages; assay: 55Fe release from FPN1-deficient J774 macrophages; type: cell-based, mouse; settings: hepcidin-treated cells
Protocol: To knockdown FPN1 levels in wild type J774 cells, the cells were incubated with […] mouse hepcidin (Peptides International PLP-3773-PI) for 1 hour in J774 Complete media similar to previously described (41) before ^55Fe was loaded into J774 cells and ^55Fe release was determined.
J774 cells were grown in 12-well plates to ˜80% confluency. The cells were then treated with vehicle or hepcidin in fresh J774 Complete media (1 mL) and incubated at 37° C. for 1 hour. After incubation, the media was aspirated, and then a ^55Fe2Tf (50 nM) solution in J774 Complete media (1 mL) containing vehicle or hepcidin was added. The cells were incubated at 37° C. for 10 minutes, and the media was removed. The cells were rinsed with PBS (×2), and then rinsed with J774 Complete media (1 mL) for 10 minutes at 37° C. […] At the indicated times, aliquots (<100 μL) of the media were removed, diluted in scintillation cocktail, and radioactivity was determined by liquid scintillation counting. […] The cell lysate was diluted in scintillation cocktail and intracellular ^55Fe levels were determined by liquid scintillation counting. The % ^55Fe release was determined by the ratio of extracellular ^55Fe to total (intracellular+ extracellular) ^55Fe at the indicated times.

[7] = tested on: FPN1-deficient Flatiron (ffe/+) mice; assay: 59Fe gut absorption in Flatiron mice; type: in vivo; settings: 1.5 mg/kg, oral gavage, after one and two hours
Protocol: Temporal live cell imaging of labile iron levels in shDMT1 Caco-2 monolayers was performed after staining of Caco-2 monolayers with calcein green-AM (5 μM) in the apical and basolateral liquid for 30 minutes in pH=7.4 DMEM. […] Final volume administered was 1.5 mL/kg for each mouse, correcting for individual body weight. […] […] Radioactivity was quantified by gamma counting and calculated as the percentage of gavaged dose (±SEM). Experiments were performed with 4 genotyped-matched mice/day; preliminary analysis determined there were no gender effects on uptake of ^59Fe after intragastric gavage; mixed genders were used in the experiments shown.

[8] = Single-dose in vivo pharmacokinetics of hinokitiol in mice; settings: 100 mg/kg
Protocol: FIGS. 29A-29B show single-dose in vivo pharmacokinetics of hinokitiol in mice. Mice were mixed C57BL/6 and 129/Sv background (2-3 mo. old) were administered various concentrations of hinokitiol (30 or 100 mg Hino/kg body weight) by two different routes (A) intraperitoneal injection and (B) oral gavage. Plasma samples were collected at various timepoints (5-360 minutes) for drug measurement by HPLC.
In addition to evaluating the pharmacodynamics (effect) of hinokitiol in Al, the pharmacokinetics of hinokitiol were characterized to guide the optimal dose scheme for treatment.

For `CC(C)c1cccc(=O)c(O)c1` [hinokitiol], the “time over which growth restoration is sustained” value [1] was greater than 100 days, the pKa [2] was 7.33 and the “excess of hinokitiol relative to ferritin needed to remove iron” value [3] was > 1,000,000 fold. The “time to equilibrium between 55Fe- and 56Fe-hinokitiol complex” value ([4]; 10 mM Mes/Tris, pH 7.0) was “within one hour”, the “exchange of bound 56Fe with 55Fe in solution” value ([4]; within 10 minutes, pH 7.0, 37° C.) was greater than 20% and the hemoglobinization [5] was “did not promote hemoglobinization”. The iron release [6] was “time- and dose-dependently restored iron release”, the 59Fe absorption [7] was “increased ^59Fe absorption” and the half-life [8] was “increased half-life”.
